From the NIST ThermoML archive (doi:10.1016/j.jct.2015.01.006)

Assay: mn = molality of the nth substance listed, in mol/kg
Settings: 298.15 K, 100 kPa, Liquid, Vibrating tube method

[O]=[Re](=[O])(=[O])[OH] [perrhenic acid] + O
Settings | mass density [kg/m3]
m1 = 0.15 | 1027.57
m1 = 0.31 | 1057.54
m1 = 0.46 | 1087.27
m1 = 0.6 | 1115.28
m1 = 0.75 | 1143.92
m1 = 0.89 | 1169.78
m1 = 1.03 | 1195.77
m1 = 1.17 | 1220.36
m1 = 1.31 | 1245.59
m1 = 1.45 | 1270.29
m1 = 1.58 | 1292.96
m1 = 1.71 | 1316
m1 = 1.93 | 1361.24
m1 = 2.38 | 1429.34
m1 = 3.33 | 1584.96
m1 = 3.78 | 1649.71
m1 = 4.08 | 1693.28
m1 = 4.29 | 1716.22
m1 = 4.63 | 1782.41
m1 = 4.72 | 1791.73
m1 = 4.96 | 1821.44
m1 = 5.23 | 1856.73
m1 = 5.45 | 1877.16
m1 = 5.66 | 1910.98
m1 = 5.92 | 1933.4
m1 = 6.06 | 1957.44
m1 = 6.26 | 1978.54
m1 = 6.5 | 2025.89
m1 = 6.8 | 2054.75
m1 = 7.05 | 2069.04
m1 = 7.13 | 2085.82
m1 = 7.42 | 2107.74
m1 = 7.44 | 2117.26
m1 = 7.65 | 2134.62
m1 = 7.86 | 2153.7
m1 = 7.95 | 2166.62
m1 = 8.2 | 2192.45
m1 = 11.82 | 2516.75
